From ChEMBL document CHEMBL1201862, “PubChem BioAssay data set” (2004)
The source made the active and inactive calls.

Key:
[1] = HepG2 cell cytotoxicity, dose response, cytotoxicity control, cherry-picks, set 5 (AID 1053118); assay type: functional, cell-based
[2] = HEK293 cell cytotoxicity, dose response, cytotoxicity control, cherry-picks, set 5 (AID 1053117); assay type: functional, cell-based
[3] = A549 cell cytotoxicity, dose response, cytotoxicity control, cherry-picks, 26 µM top dose (AID 1053119); assay type: functional, cell-based
[4] = P. falciparum 3D7-ScDHODH growth inhibitors, dose response, SYBR Green, dry powder samples (AID 1159570); assay type: functional, cell-based;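 further: parasite growth measured after 72 hours of compound exposure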
[5] = HepG2 cell cytotoxicity, dose response, cytotoxicity control, plate reader, dry powder samples (AID 1159569); assay type: functional, cell-based;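 further: inhibitor potency with signal falling toward the positive control level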
[6] = P. falciparum Dd2 growth inhibitors, dose response, SYBR Green, cherry-picked samples (AID 1159567); assay type: functional, cell-based
[7] = P. falciparum Dd2 growth inhibitors, dose response, SYBR Green, dry powder samples (AID 1159566); assay type: functional, cell-based;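 further: potency for growth inhibition with lower SYBR green DNA signal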
[8] = P. falciparum ATP4 D1247Y mutant growth inhibitors, dose response, NITD609-resistant line, SYBR Green, dry powder (AID 1159571); assay type: functional, cell-based;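 further: parasites synchronized at ring stage by sorbitol before testing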
[9] = TRPM1 promoter luciferase reporter signal decrease, dose response, MITF inhibitor project, cell-based, SK-MEL-5, dry powder, set 9 (AID 651588); assay type: functional
[10] = MITF Orthogonal Assay: MALME3 CTG Assay Measured in Cell-Based System Using Plate Reader - 2084-04_Inhibitor_Dose_DryPowder_Activity_Set6.; assay type: functional; conditions: MALME-3
[11] = SK-MEL-5 parental cell viability reduction, dose response, orthogonal assay for MITF inhibitor project, CellTiter-Glo luminescence, dry powder, set 8 (AID 651586); assay type: functional, cell-based
[12] = MALME3 melanoma cell viability reduction, dose response, orthogonal assay for MITF inhibitor project, CellTiter-Glo luminescence, dry powder, set 5 (AID 651584); assay type: functional, cell-based; conditions: MALME-3
[13] = MITF Orthogonal Assay: SK-MEL-5 CTG Assay Measured in Cell-Based System Using Plate Reader - 2084-02_Inhibitor_Dose_DryPowder_Activity_Set7.; assay type: functional
[14] = MITF: Counter assay: A375 proliferation Measured in Cell-Based System Using Plate Reader - 2084-03_Inhibitor_Dose_DryPowder_Activity_Set8.; assay type: functional; conditions: A-375
[15] = A375 melanoma cell viability loss, dose response, counter-screen for MITF modulator project, CellTiter-Glo luminescence, dry powder, set 9 (AID 651591); assay type: functional, cell-based; conditions: A-375
[16] = TRPM1 promoter luciferase reporter signal decrease, dose response, MITF inhibitor project, cell-based, SK-MEL-5, dry powder, set 8 (AID 624430); assay type: functional
[17] = target: NAD-dependent protein deacylase sirtuin-5, mitochondrial (Homo sapiens, UniProt Q9NXA8); experiment: SIRT5 desuccinylase inhibitors, dose response, biochemical, fluorescence imaging, cherry-pick, set 5 (AID 720591);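 further: desuccinylation of succinyl peptide AMC substrate read as fluorescence after trypsin release; potency of inhibitors that lower fluorescence and may act on trypsin instead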
[18] = target: RNA-editing ligase 1, mitochondrial (Trypanosoma brucei brucei, UniProt P86926); experiment: TbREL1 ligase inhibitors, dose response, biochemical, fluorescence, Trypanosoma brucei (AID 1117295); assay type: functional
[19] = target: Delta-type opioid receptor (Homo sapiens, UniProt P41143); experiment: Counterscreen for agonists of heterodimerization of the mu 1 (OPRM1) and delta 1 (OPRD1) opioid receptors: Luminescence-based cell-based high throughput dose response assay to identify agonists of OPRD1 homodimerization. [Related pubchem assays (depositor defined):AID504326, AID504355, AID504692, AID504904, AID504905]; assay type: functional
[20] = target: Mu-type opioid receptor (Homo sapiens, UniProt P35372); experiment: Counterscreen for agonists of heterodimerization of the mu 1 (OPRM1) and delta 1 (OPRD1) opioid receptors: Luminescence-based cell-based high throughput dose response assay to identify agonists of OPRM1 homodimerization.; assay type: functional;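 further: U2OS cells expressing OPRM1 and beta-arrestin as split beta-galactosidase partners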
[21] = target: 5-hydroxytryptamine receptor 5A (Homo sapiens, UniProt P47898); experiment: Counterscreen for agonists of OPRM1-OPRD1 heterodimerization: luminescence-based cell-based high throughput dose response assay to identify agonists of 5-hydroxytryptamine (serotonin) 5A receptor (HTR5A). [Related pubchem assays (depositor defined):AID504326, AID504355, AID504692, AID504904, AID504905]; assay type: functional
[22] = Fluorescence-based cell-based high throughput dose response assay for inhibitors of the interaction of nucleotide-binding oligomerization domain containing 2 (NOD2) and the receptor-interacting serine-threonine kinase 2 (RIPK2).; assay type: functional; conditions: Homo sapiens
[23] = target: Beta Lactamase (Pseudomonas aeruginosa, UniProt Q932Y6); experiment: beta-lactamase reporter inhibitor potency, dose response, artefact control for NOD2-RIPK2 interaction inhibitor project, BLA reporter cells, FRET fluorescence (AID 651552); assay type: functional, cell-based
[24] = miR-122 activators in hepatoma reporter cells, dose response, cell-based, Huh7 psiCHECK-miR122, Renilla luciferase, cherry-picked (AID 651956); assay type: functional;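 further: huh7 hepatoma cells stably carrying a psiCHECK-2 miR-122 sensor plasmid; renilla luciferase signal reporting endogenous miR-122 activity after 48 h compound exposure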
[25] = HeLa cell cytotoxicity, dose response, cytotoxicity control for MgcRacGAP inhibitor project (AID 624300); assay type: functional
[26] = target: T1, Rac GTPase-activating protein 1 (Homo sapiens, UniProt Q9H0H5); experiment: MgcRacGAP GTPase-activating activity inhibitors, confirmation, biochemical, ADP Hunter fluorescence, primary and confirmatory (AID 624330); assay type: functional
T1 sequence (Q9H0H5 whole entry): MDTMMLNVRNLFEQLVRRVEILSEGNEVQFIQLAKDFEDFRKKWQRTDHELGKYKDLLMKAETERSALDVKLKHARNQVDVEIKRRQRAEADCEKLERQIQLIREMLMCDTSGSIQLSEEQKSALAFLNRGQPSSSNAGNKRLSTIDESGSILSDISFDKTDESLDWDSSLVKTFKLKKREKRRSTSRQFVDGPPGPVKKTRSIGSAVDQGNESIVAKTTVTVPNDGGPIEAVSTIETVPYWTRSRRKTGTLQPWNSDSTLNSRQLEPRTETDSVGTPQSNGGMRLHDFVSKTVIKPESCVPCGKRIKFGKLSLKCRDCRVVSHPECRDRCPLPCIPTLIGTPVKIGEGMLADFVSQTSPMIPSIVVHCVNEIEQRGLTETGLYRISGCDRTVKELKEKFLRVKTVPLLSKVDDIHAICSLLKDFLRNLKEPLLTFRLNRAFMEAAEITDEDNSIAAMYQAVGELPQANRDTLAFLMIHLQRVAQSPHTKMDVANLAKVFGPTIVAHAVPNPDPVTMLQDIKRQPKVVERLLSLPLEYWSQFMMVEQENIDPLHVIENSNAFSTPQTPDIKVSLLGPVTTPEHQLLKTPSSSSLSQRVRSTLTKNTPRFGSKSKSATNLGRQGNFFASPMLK

[27] = target: E3 ubiquitin-protein ligase UHRF1 (Homo sapiens, UniProt Q96T88); experiment: Counterscreen for inhibitors of 5-meCpG-binding domain protein 2 (MBD2): TRFRET-based biochemical high throughput dose response assay to identify inhibitors of binding of ubiquitin-like with PHD and ring finger domains 1 (UHRF1) to methylated oligonucleotide.
[28] = HEK293T cytotoxicity, dose response, cytotoxicity control for miR-122 modulator project, cell-based, inhibitor set, cherry-pick, set 2 (AID 720697); assay type: functional
[29] = HepG2 cell cytotoxicity, dose response, cytotoxicity control, ATP luminescence, cherry-pick, activator set 2 (AID 1053143); assay type: functional, cell-based
[30] = target: Paired box protein Pax-8 (Homo sapiens, UniProt Q06710); experiment: inhibitors of PAX8-driven TPO luciferase reporter, dose response, RMG-I cells, cherry-pick (AID 687027); assay type: functional, cell-based;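 further: luciferase reporter driven by Pax8 target thyroperoxidase promoter measured by SteadyGlo luminescence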
[31] = non-specific cell cytotoxicity, dose response, cytotoxicity control for PAX8 inhibitor project, plate reader, dry powder samples (AID 743021); assay type: functional, cell-based

Beta Lactamase, sequence (Q932Y6 whole entry): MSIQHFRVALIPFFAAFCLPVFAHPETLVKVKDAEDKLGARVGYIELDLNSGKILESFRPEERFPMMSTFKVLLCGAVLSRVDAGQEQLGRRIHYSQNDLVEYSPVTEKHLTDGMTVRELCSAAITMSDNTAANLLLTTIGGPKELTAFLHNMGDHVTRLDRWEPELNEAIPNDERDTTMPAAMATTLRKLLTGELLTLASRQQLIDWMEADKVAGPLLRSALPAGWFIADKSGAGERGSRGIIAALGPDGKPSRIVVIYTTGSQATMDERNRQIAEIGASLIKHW
5-hydroxytryptamine receptor 5A, sequence (P47898 whole entry, the tested form may be a part): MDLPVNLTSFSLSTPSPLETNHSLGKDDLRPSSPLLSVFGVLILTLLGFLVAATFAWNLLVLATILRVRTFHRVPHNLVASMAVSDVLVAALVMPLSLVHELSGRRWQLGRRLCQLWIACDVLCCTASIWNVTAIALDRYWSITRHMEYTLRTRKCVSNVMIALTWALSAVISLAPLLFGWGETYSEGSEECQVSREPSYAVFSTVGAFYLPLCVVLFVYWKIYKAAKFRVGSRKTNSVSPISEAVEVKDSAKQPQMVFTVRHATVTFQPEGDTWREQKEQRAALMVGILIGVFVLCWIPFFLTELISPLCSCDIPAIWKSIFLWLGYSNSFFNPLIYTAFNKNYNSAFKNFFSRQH
Mu-type opioid receptor, sequence (P35372 whole entry): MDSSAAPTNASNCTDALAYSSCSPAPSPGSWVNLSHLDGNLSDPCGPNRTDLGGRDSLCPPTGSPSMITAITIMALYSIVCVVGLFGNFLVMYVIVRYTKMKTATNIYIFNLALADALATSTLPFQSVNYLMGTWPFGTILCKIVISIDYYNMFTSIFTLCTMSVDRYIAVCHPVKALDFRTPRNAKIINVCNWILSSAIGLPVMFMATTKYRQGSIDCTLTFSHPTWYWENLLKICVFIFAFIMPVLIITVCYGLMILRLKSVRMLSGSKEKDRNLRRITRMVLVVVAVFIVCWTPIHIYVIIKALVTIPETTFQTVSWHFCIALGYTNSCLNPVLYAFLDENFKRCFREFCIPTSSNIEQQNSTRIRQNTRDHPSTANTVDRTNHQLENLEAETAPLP
Paired box protein Pax-8, sequence (Q06710 whole entry): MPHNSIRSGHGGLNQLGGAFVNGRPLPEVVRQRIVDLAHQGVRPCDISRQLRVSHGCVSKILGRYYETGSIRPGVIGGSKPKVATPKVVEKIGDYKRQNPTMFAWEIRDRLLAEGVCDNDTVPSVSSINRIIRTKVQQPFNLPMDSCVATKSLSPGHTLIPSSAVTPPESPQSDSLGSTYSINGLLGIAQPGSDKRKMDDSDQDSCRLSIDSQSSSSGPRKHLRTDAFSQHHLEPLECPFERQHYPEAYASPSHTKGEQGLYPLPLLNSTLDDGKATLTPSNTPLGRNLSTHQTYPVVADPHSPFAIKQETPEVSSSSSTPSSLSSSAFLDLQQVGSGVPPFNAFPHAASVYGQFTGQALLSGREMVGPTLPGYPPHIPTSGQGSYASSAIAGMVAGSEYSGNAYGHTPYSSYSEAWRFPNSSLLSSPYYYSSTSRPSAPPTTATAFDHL
NAD-dependent protein deacylase sirtuin-5, mitochondrial, sequence (Q9NXA8 whole entry): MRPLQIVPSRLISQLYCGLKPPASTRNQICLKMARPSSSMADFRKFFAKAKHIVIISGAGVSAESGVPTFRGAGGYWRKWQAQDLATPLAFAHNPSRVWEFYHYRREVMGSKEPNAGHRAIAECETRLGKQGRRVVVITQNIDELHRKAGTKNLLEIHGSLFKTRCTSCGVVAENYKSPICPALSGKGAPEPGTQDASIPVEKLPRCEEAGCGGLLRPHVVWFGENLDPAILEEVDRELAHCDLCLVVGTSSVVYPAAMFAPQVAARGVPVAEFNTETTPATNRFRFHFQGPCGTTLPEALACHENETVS
RNA-editing ligase 1, mitochondrial, sequence (P86926 whole entry): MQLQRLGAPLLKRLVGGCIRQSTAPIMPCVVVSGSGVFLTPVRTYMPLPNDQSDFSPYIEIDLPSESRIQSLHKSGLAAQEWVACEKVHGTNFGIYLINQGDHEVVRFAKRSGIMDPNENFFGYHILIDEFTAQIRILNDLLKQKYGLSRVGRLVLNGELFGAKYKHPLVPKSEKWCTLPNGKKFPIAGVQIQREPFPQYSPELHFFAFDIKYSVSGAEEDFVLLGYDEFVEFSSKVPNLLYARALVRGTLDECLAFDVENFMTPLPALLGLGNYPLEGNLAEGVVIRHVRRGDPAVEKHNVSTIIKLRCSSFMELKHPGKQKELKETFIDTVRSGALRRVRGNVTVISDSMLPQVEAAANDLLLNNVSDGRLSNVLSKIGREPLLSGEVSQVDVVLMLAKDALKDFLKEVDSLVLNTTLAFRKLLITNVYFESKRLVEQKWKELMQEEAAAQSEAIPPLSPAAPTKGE
E3 ubiquitin-protein ligase UHRF1, sequence (Q96T88 whole entry, the tested form may be a part): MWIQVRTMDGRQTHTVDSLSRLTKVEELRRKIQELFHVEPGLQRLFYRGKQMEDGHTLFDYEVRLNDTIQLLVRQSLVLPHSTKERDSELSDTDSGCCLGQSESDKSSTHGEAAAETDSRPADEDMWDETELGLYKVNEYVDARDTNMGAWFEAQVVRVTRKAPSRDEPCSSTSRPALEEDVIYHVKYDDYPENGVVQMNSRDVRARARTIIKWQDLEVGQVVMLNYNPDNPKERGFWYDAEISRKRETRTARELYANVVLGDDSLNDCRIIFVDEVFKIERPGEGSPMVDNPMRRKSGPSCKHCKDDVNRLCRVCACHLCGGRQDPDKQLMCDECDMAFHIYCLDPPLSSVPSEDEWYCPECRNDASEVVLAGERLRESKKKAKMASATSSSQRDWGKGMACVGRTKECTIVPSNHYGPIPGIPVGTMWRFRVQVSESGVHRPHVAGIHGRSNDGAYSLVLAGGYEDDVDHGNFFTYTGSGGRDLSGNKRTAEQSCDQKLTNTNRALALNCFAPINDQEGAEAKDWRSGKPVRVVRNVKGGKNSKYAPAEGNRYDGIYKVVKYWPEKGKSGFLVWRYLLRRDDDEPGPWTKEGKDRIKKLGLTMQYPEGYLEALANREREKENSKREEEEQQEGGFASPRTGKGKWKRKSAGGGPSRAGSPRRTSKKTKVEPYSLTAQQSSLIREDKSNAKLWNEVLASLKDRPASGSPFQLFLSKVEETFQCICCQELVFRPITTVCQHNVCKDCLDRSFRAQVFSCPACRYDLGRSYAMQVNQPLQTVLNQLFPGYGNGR
Delta-type opioid receptor, sequence (P41143 whole entry): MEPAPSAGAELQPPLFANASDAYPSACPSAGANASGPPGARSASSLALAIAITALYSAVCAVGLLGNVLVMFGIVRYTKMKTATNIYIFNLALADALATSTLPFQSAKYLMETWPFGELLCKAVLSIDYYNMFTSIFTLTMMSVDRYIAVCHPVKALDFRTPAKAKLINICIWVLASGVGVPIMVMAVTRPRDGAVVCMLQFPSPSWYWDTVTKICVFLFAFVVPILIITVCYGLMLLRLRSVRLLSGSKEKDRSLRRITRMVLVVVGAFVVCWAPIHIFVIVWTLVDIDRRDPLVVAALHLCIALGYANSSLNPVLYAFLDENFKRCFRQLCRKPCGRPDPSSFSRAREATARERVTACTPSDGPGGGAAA

With CO[C@H]1CN(C)C(=O)c2cc(NC(=O)Nc3ccc(C(F)(F)F)cc3)ccc2OC[C@H](C)NC[C@H]1C the AC50 [1] was > 52 µM (inactive), the AC50 [2] was > 52 µM (inactive) and the AC50 [3] was > 52 µM (inactive). For the same compound, the AC50 [4] was 1.37 µM (active), the AC50 [5] was 19.2 µM (active) and the AC50 [6] was 2.49 µM (active). The AC50 [7] was 1.56 µM (active) and the AC50 [8] was 2.76 µM (active).

For O=C1C(Nc2ccc(F)cc2)=C(N2CCCCC2)C(=O)c2ccccc21, the AC50 [9] was 8.63 µM (active), the AC50 [10] was 14.1 µM (active) and the AC50 [11] was 25.8 µM (active). For the same compound, the AC50 [12] was 14.1 µM (active), the AC50 [13] was 8.64 µM (active) and the AC50 [14] was 57.6 µM (active). For the same compound, the AC50 [15] was 27.4 µM (active) and the AC50 [16] was 2.24 µM (active).

For Cc1noc(C)c1NC(=O)N(C)C[C@@H]1Oc2cc(Br)ccc2S(=O)(=O)N([C@@H](C)CO)C[C@H]1C, the AC50 [17] was > 30 µM (inactive).

With COC(=O)C1=C(C)N(Cc2cccc(C(F)(F)F)c2)C(NCc2ccccc2)=NC1c1ccccc1C(F)(F)F (stereo unspecified) the IC50 [18] was > 96.6 µM (inactive).

With Cc1cc2[nH]c3c4ccccc4nc(C)c3c2cc1C the EC50 [19] was > 92.4 µM (inactive), the EC50 [20] was > 92.4 µM (inactive) and the EC50 [21] was > 92.4 µM (inactive). The IC50 [22] was 15.5 µM (inactive), the IC50 [23] was 23.6 µM (inactive) and the AC50 [24] was 10.8 µM (active). For the same compound, the CC50 [25] was 12.4 µM (active), the IC50 [26] was 38.9 µM (active) and the IC50 [27] was 19 µM (inactive). The AC50 [28] was 3.57 µM (active).

With O=C(Nc1ccc(F)cc1)c1ccc2nsnc2c1 the AC50 [29] was > 52 µM (inactive).

With COc1ccc(S(=O)(=O)Nc2ccc3c(c2)C(=O)N([C@@H](C)CO)C[C@@H](C)[C@H](CN(C)Cc2ccc(C(F)(F)F)cc2)OCCCC[C@H](C)O3)cc1 the AC50 [30] was 10.8 µM (active) and the AC50 [31] was 45.4 µM (active).
